The values that follow come from PMC5790467, “Enhanced anti-tumor efficacy and mechanisms associated with docetaxel-piperine combination- in vitro and in vivo investigation using a taxane-resistant prostate cancer model” (Oncotarget, 2017).

Data set [1] has as its system PC3-TxR cells. Kind of data set: Microarray gene expression profiling of PC3-TxR cells treated with PIP. The class given is cell-based, human. The note with it: 6 h. As to the method:
The microarray technique was utilized to identify the potential mechanisms related to the chemosensitizing effect of PIP in PC3-TxR cells by determining the gene expression profile at the whole genome level. PC3-TxR cells were seeded at a density of 1 × 10^5 cells/ml in DMEM supplemented with 10% fetal bovine serum and cultured for 24 h. The cells were then treated with PIP at concentrations of 25 and 50 μg/ml (as low and high concentrations respectively) for 6 h. PIP was initially dissolved in DMSO and diluted to the target concentrations using DMEM. DMSO (0.5%) was used as the negative control (n = 2). Total RNA was extracted using RNeasy Mini Kit (QIAGEN, Valencia, CA, USA) according to the manufacturer’s protocol. The RNA was measured and the quality was checked using the RNA 6000 LabChip and Agilent 2100 BioAnalyzer. Only the high-quality RNA samples (e.g. RNA integrity number greater than 9.0) were used for subsequent microarray procedure performed at the Functional Genomics Core, Beckman Research Institute, City of Hope Comprehensive Cancer Center. Affymetrix Human Genome U133 Plus 2.0 arrays (Santa Clara, CA, USA) containing 54,675 probe sets detecting over 47,000 transcripts were used. The RNA samples were randomized and blinded prior to the microarray processing/analysis. The cRNA synthesis and labeling were carried out following the Affymetrix GeneChip 3′ IVT Express standard preparation protocol using […] of total RNA from each sample, along with polyA spike-in controls. The cRNA samples were converted to double-stranded cDNA. After second-strand synthesis, the cDNA was purified with the GeneChip sample cleanup module (Affymetrix, Santa Clara, CA). Biotinylated cRNAs were then synthesized by in vitro transcription. For each sample, […] of biotinylated cRNA along with hybridization spiked controls (bioB, bioC, bioD, and cre) was hybridized with Affymetrix Human Genome U133 Plus 2.0 array for 16 h at 45°C. Following hybridization, arrays were washed, stained, and then scanned with an Affymetrix GeneChipH 3000 7G scanner.
Statistical testing and additional analysis of the microarray data were conducted using Partek “Gene Expression” Workflow, i.e., Filtering, PCA, Sample Histogram, QC metrics, Gene Clustering, and ANOVA Analysis). The probe-set level expression data were summarized with Robust Multichip Average (RMA) by taking all 8 microarrays together. PCA and hierarchical clustering analysis (HCA) combined with heatmap was used to assess the quality of the microarray data by evaluating the reproducibility and variation of three replicates within each group and the differences among the three groups. The log2-transformed expression intensities of 54,675 probe sets from the 8 microarrays were used to calculate the Pearson Correlation Coefficient and Ward’s Minimum Variance method was used to calculate the distance between samples.
The differentially expressed genes (DEGs) between the treatment and control group were identified using cutoffs of t-test p value < 0.05 and fold change >2. The DEGs and probe sets were selected separately by comparing each treatment group with the control group. The dose dependent DEGs were than selected by overlapping the two DEGs sets. A functional annotation of these genes was carried out, using a gene ontology-based analysis of biological properties.

Data set [2] concerns PC3-TxR cells. Kind of data set: Cell viability (cytotoxicity) of PC3-TxR cells. The class given is cell-based. The conditions noted are these: Homo sapiens, triplicate samples, read-out: IC50, cytotoxicity of PIP on PC3-TxR. An excerpt: www.impactjournals.com/oncotarget/ Oncotarget, Supplementary Materials 2017
investigation using a taxane-resistant prostate cancer model
Supplementary Figure 1: Cell viability (measured from triplicate samples) of PC3-TxR cells. (A) The cytotoxicity of PIP
(1 picture or pasted object on this page, not shown here)

Another data set relates to Caco-2 monolayer model. Also on record: method as in PMID 12130727. The note with it: cited from earlier work.
For a further data set, the system named is A-549/DDP. Also on record: method as in PMID 21802927. The conditions noted are these: PIP at 50 μM; cited from earlier work.

SMILES strings stand for the structures. In brackets after ≈: the same amount, converted by molar mass. Where two headings read alike, the source gives them in different places.

As to `O=C(/C=C/C=C/c1ccc2c(c1)OCO2)N1CCCCC1` [PIP, 1-piperoyl piperidine], in the data set on PC3-TxR cells [1] (High dose PIP), the “expression change of Angiopoietin-like 4” value worked out at 1.6; the “expression change of CYP1B1” value is given as −4.3; the “expression change of Fatty acid binding protein 4, adipocyte” value is reported as 1.9; the “expression change of Keratin associated protein 2–3” value is −4.7. Besides, in the data set with PC3-TxR cells [1] (High dose PIP), the “expression change of Keratin associated protein 3–1” value is −2.7; the “expression change of Metastasis associated lung adenocarcinoma transcript 1 (non-protein coding)” value was found to be 4.1; the “expression change of O-linked N-acetylglucosamine (GlcNAc) transferase” value came to 2.3; the “expression change of Sodium channel, non-voltage-gated 1, gamma subunit” value turned out to be 1.5. Also, in the data set on PC3-TxR cells [1] (High dose PIP), the “expression change of TCDD-inducible poly(ADP-ribose) polymerase” value is −2.6 and the “expression change of Thrombospondin 1” value is reported as −2.4. In addition, in the data set with PC3-TxR cells [1] (Low dose PIP), the “expression change of Angiopoietin-like 4” value is listed as 2.3; the “expression change of CYP1B1” value is −5.1; the “expression change of Fatty acid binding protein 4, adipocyte” value was determined as 2.5; the “expression change of Keratin associated protein 2–3” value is given as −3.3. Moreover, in the data set with PC3-TxR cells [1] (Low dose PIP), the “expression change of Keratin associated protein 3–1” value is −2.0; the “expression change of Metastasis associated lung adenocarcinoma transcript 1 (non-protein coding)” value is on record as 3.0; the “expression change of O-linked N-acetylglucosamine (GlcNAc) transferase” value turned out to be 2.0; the “expression change of Sodium channel, non-voltage-gated 1, gamma subunit” value amounted to 2.5. Further, in the data set on PC3-TxR cells [1] (Low dose PIP), the “expression change of TCDD-inducible poly(ADP-ribose) polymerase” value is given as −2.8 and the “expression change of Thrombospondin 1” value is −2.2. For the same molecule, the IC50 in the data set with PC3-TxR cells [2] amounted to 47.3 µg/mL (≈ 166 µM). Also, the half-maximal inhibitory concentration (IC50) in the data set on Caco-2 monolayer model (read-out: IC50 of inhibition of the transport of cyclosporine A) is 74.1 µM. Besides, the IC50 in the data set with Caco-2 monolayer model (read-out: IC50 of inhibition of the transport of digoxin) was 15.5 µM. Moreover, in the data set on A-549/DDP, the “enhancement of the sensitivity to doxorubicin” value is 14 folds.
